# Data as given in paper PMC3634465, “New Anti-Inflammatory Aromatic Components from Antrodia camphorata” (International Journal of Molecular Sciences, 2013).
# What was measured:
# [1] = Cell viability (MTT) in the presence of LPS; type: cell-based, murine; conditions: mouse, RAW264.7 macrophage cells, 100 ng/mL LPS, mean ± SD, read-out: Cell viability (% of control)
# Protocol: (§1) A murine macrophage cell line, RAW264.7 (BCRC No. 60001), was purchased from the Bioresources Collection and Research Center (BCRC, Hsinchu, Taiwan) of the Food Industry Research and Development Institute (Hsinchu, Taiwan). Cells were cultured in plastic dishes containing Dulbecco’s Modified Eagle Medium (DMEM, Sigma, St. Louis, MO, USA) supplemented with 10% fetal bovine serum (FBS, Sigma) in a CO2 incubator (5% CO2 in air) at 37 °C and subcultured every 3 days at a dilution of 1:5 using 0.05% trypsin-0.02% EDTA in Ca^2+-, Mg^2+-free phosphate-buffered saline (DPBS).
# Cells (2 × 10^5) were cultured in 96-well plate containing DMEM supplemented with 10% FBS for 1 day to become nearly confluent. Then, cells were cultured with compounds 1–5 in the presence of 100 ng/mL LPS (lipopolysaccharide) (Eschericha coli 026:B6; Sigma-Aldrich, St. Louis, Mo) for 24 h. After that, the cells were washed twice with DPBS and incubated with 100 μL of 0.5 mg/mL MTT for 2 h at 37 °C testing for cell viability. The medium was then discarded, and 100 μL dimethyl sulfoxide (DMSO) was added. After 30-min incubation, absorbance at 570 nm was read using a microplate reader (Molecular Devices, Sunnyvale, CA, USA).
# [2] = system: LPS-induced NO production in RAW264.7 macrophages; assay: LPS-induced NO production in macrophages (nitrite, Griess reaction); type: cell-based, murine; conditions: LPS 100 ng/mL, 24 h; for NO level: LPS alone 25.3 ± 3.0, control 2.5 ± 0.2; for IC50: Mus musculus, RAW264.7, non-linear regression, read-out: IC50 of inhibition of LPS-induced NO production
# Protocol: as §1
# NO production was indirectly assessed by measuring the nitrite levels in the cultured media and serum determined by a colorimetric method based on the Griess reaction. The cells were incubated with different concentrations of samples in the presence of LPS (100 ng/mL) at 37 °C for 24 h. Then, cells were dispensed into 96-well plates, and 100 μL of each supernatant was mixed with the same volume of Griess reagent (1% sulfanilamide, 0.1% naphthyl ethylenediamine dihydrochloride and 5% phosphoric acid) and incubated at room temperature for 10 min; the absorbance was measured at 540 nm with a Micro-Reader (Molecular Devices).
# IC50 values were estimated using a non-linear regression algorithm (Sigma Plot 8.0; SPSS Inc., Chicago, IL, USA). Statistical evaluation was carried out by one-way analysis of variance (ANOVA, followed by Scheffe’s multiple range tests).
SMILES,IC50 [2] [µg/mL],"viability at 24 h, 0.312 μg/mL [1] [%]","viability at 24 h, 0.625 μg/mL [1] [%]","viability at 24 h, 1.25 μg/mL [1] [%]","viability at 24 h, 2.5 μg/mL [1] [%]","viability at 24 h, 5 μg/mL [1] [%]",NO level ([2]; dose 0.312 μg/mL) [µM],NO level ([2]; dose 0.625 μg/mL) [µM],NO level ([2]; dose 1.25 μg/mL) [µM],NO level ([2]; dose 2.5 μg/mL) [µM],"viability at 24 h, 25 μg/mL [1] [%]","viability at 24 h, 50 μg/mL [1] [%]",NO level ([2]; dose 25 μg/mL) [µM],further results
"COc1cc(C)c(OC)c(O)c1OC [Compound 4, 2,3,6-trimethoxy-5-methylphenol]",–,97 ± 1.1,96.2 ± 2.2,95 ± 2.1,94.6 ± 1.6,69.3 ± 2.1,20.6 ± 1.2,19.4 ± 2.0,18.3 ± 0.3,13.6 ± 0.6,–,–,–,–
"COc1c(C)cc(-c2c(O)c(C)c(OC)c3c2OCO3)c2c1OCO2 [Compound 2, 2-hydroxy-4,4′-dimethoxy-3,3′-dimethyl-5,6,5′,6′-bimethylenedioxybiphenyl]",–,98 ± 1.5,96.6 ± 7.6,96.6 ± 2.2,92.7 ± 1.3,71.4 ± 2.2,16.4 ± 2.4,16.1 ± 1.3,15.7 ± 2.0,15.5 ± 1.9,–,–,–,–
"C=C(C)c1c(OC)c(O)c(C)c2c1OCO2 [Compound 1, 3-isopropenyl-2-methoxy-6-methyl-4,5-methylenedioxyphenol]",1.8 ± 0.2,92 ± 3.3,91 ± 3.7,90.4 ± 2.4,87.3 ± 2.3,65.5 ± 1.7,14.5 ± 2.2,14.1 ± 1.5,13.0 ± 1.5,12.0 ± 1.7,–,–,–,–
"COc1ccc2c(c1)c(CC(=O)O)c(C)n2C(=O)c1ccc(Cl)cc1 [Indomethacin, indomethacin, reference compound]",–,–,–,–,–,–,–,–,–,–,96.2 ± 1.1,94.8 ± 1.3,19.2 ± 0.6,NO level ([2]; dose 50 μg/mL): 14.3 ± 0.8 µM

# Now from value to compound, other results behind:
IC50 [2] [µg/mL],SMILES,"viability at 24 h, 0.312 μg/mL [1] [%]","viability at 24 h, 0.625 μg/mL [1] [%]","viability at 24 h, 1.25 μg/mL [1] [%]","viability at 24 h, 2.5 μg/mL [1] [%]","viability at 24 h, 5 μg/mL [1] [%]",NO level ([2]; dose 0.312 μg/mL) [µM],NO level ([2]; dose 0.625 μg/mL) [µM],NO level ([2]; dose 1.25 μg/mL) [µM],NO level ([2]; dose 2.5 μg/mL) [µM],"viability at 24 h, 25 μg/mL [1] [%]","viability at 24 h, 50 μg/mL [1] [%]",NO level ([2]; dose 25 μg/mL) [µM],further results
18.8 ± 0.6,"COc1c(C)c(-c2c(C)c(OC)c(O)c3c2OCO3)c2c(c1O)OCO2 [Compound 3, 4,4′-dihydroxy-3,3′-dimethoxy-2,2′-dimethyl-5,6,5′,6′-bimethylenedioxybiphenyl]",–,–,–,–,–,–,–,–,–,91 ± 7.7,64.8 ± 2.2,12.1 ± 0.6,"viability at 24 h, 3.12 μg/mL ([1]; dose 3.12 μg/mL): 95.1 ± 2.9%; viability at 24 h, 6.25 μg/mL ([1]; dose 6.25 μg/mL): 93.1 ± 2.7%; viability at 24 h, 12.5 μg/mL ([1]; dose 12.5 μg/mL): 93 ± 2.6%; NO level ([2]; dose 3.12 μg/mL): 13.7 ± 0.1 µM; NO level ([2]; dose 6.25 μg/mL): 13.4 ± 0.4 µM; NO level ([2]; dose 12.5 μg/mL): 13.2 ± 0.1 µM"
0.8 ± 0.3,"COc1c(C)cc(O)c2c1OCO2 [Compound 5, 2,3-methylenedioxy-4-methoxy-5-methylphenol]",93.8 ± 2.9,88.5 ± 1.5,85 ± 2.9,83.8 ± 1.9,82.4 ± 2.7,15.2 ± 1.4,12.8 ± 1.9,12.1 ± 1.6,10.4 ± 1.3,–,–,–,NO level ([2]; dose 5 μg/mL): 10.0 ± 2.2 µM
